Activity calls are given as the source filed them.
Assays:
Mus musculus [1] = assay: Cardioprotective activity in Swiss mouse model of isoproterenol-induced myocardial infarction assessed as reduction in creatine kinase myocardial band at 1200 mg/kg administered 30 mins post isoproterenol stimulation; assay type: functional, organism-based
Mus musculus [2] = assay: Cardioprotective activity against isoproterenol-induced apoptosis in Swiss mouse model of myocardial infarction assessed as reduction in Bax/Bcl2 expression ratio in at 1200 mg/kg administered 30 mins post isoproterenol stimulation by Western blot analysis; assay type: functional, organism-based
Mus musculus [3] = assay: Cardioprotective activity in Swiss mouse model of myocardial infarction assessed as reversal of isoproterenol-induced increase in heart rate at 1200 mg/kg administered 30 mins post isoproterenol stimulation and measured for 5 mins by electrocardiographic analysis; assay type: functional, organism-based
Mus musculus [4] = assay: Cardioprotective activity against isoproterenol-induced apoptosis in Swiss mouse model of myocardial infarction assessed as increase in Bcl2 expression at 1200 mg/kg administered 30 mins post isoproterenol stimulation by Western blot analysis; assay type: functional, organism-based
Mus musculus [5] = assay: Cardioprotective activity in Swiss mouse model of isoproterenol-induced myocardial infarction assessed as reduction in myocardial infarct size at 1200 mg/kg administered 30 mins post isoproterenol stimulation by TTC staining based assay; assay type: functional, organism-based
Mus musculus [6] = assay: Cardioprotective activity against isoproterenol-induced oxidative stress in Swiss mouse model of myocardial infarction assessed as reduction in ROS generation at 1200 mg/kg administered 30 mins post isoproterenol stimulation by DHE staining based fluorescence assay; assay type: functional, organism-based
Mus musculus [7] = assay: Cardioprotective activity in Swiss mouse model of isoproterenol-induced myocardial Infarction assessed as abnormal ST-segment at 1200 mg/kg administered 30 mins post isoproterenol stimulation and measured for 5 mins by electrocardiographic analysis (reference value: 70%); assay type: functional
Mus musculus [8] = assay: Cardioprotective activity against isoproterenol-induced apoptosis in Swiss mouse model of myocardial infarction assessed as reduction in Bax expression at 1200 mg/kg administered 30 mins post isoproterenol stimulation by Western blot analysis; assay type: functional, organism-based
Mus musculus [9] = assay: Cardioprotective activity in Swiss mouse model of myocardial infarction assessed as reversal of isoproterenol-induced increase in QTc interval at 1200 mg/kg administered 30 mins post isoproterenol stimulation and measured for 5 mins by electrocardiographic analysis; assay type: functional, organism-based
Mus musculus [10] = assay: Cardioprotective activity in Swiss mouse model of isoproterenol-induced myocardial infarction assessed as reduction in lactate dehydrogenase at 1200 mg/kg administered 30 mins post isoproterenol stimulation; assay type: functional, organism-based
Mus musculus [11] = assay: Cardioprotective activity against isoproterenol-induced oxidative stress in Swiss mouse model of myocardial infarction assessed as increase in SOD activity at 10 umol, ip administered 30 mins post isoproterenol stimulation by spectrophotometric method; assay type: functional, organism-based
Mus musculus [12] = assay: Cardioprotective activity in Swiss mouse model of myocardial infarction assessed as protection against isoproterenol-induced wide spacing in myocardium at 10 umol, ip administered 30 mins post isoproterenol stimulation by H and E staining based histopathological analysis; assay type: functional, organism-based
Mus musculus [13] = assay: Cardioprotective activity against isoproterenol-induced apoptosis in Swiss mouse model of myocardial infarction assessed as reduction in Bax expression at 10 umol, ip administered 30 mins post isoproterenol stimulation by Western blot analysis; assay type: functional, organism-based
Mus musculus [14] = assay: Cardioprotective activity against isoproterenol-induced apoptosis in Swiss mouse model of myocardial infarction assessed as reduction in Bax/Bcl2 expression ratio in at 10 umol, ip administered 30 mins post isoproterenol stimulation by Western blot analysis; assay type: functional, organism-based
Mus musculus [15] = assay: Cardioprotective activity in Swiss mouse model of isoproterenol-induced myocardial infarction assessed as reduction in lactate dehydrogenase at 10 umol, ip administered 30 mins post isoproterenol stimulation; assay type: functional, organism-based
Mus musculus [16] = assay: Cardioprotective activity in Swiss mouse model of myocardial infarction assessed as protection against isoproterenol-induced capillary congestion in myocardium at 10 umol, ip administered 30 mins post isoproterenol stimulation by H and E staining based histopathological analysis; assay type: functional, organism-based
Mus musculus [17] = assay: Cardioprotective activity against isoproterenol-induced oxidative stress in Swiss mouse model of myocardial infarction assessed as increase in GPx activity at 10 umol, ip administered 30 mins post isoproterenol stimulation by spectrophotometric method; assay type: functional, organism-based
Mus musculus [18] = assay: Cardioprotective activity in Swiss mouse model of myocardial infarction assessed as protection against isoproterenol-induced mononuclear cell infiltration in myocardium at 10 umol, ip administered 30 mins post isoproterenol stimulation by H and E staining based histopathological analysis; assay type: functional, organism-based
Mus musculus [19] = assay: Cardioprotective activity in Swiss mouse model of myocardial infarction assessed as reversal of isoproterenol-induced increase in QTc interval at 10 umol, ip administered 30 mins post isoproterenol stimulation and measured for 5 mins by electrocardiographic analysis; assay type: functional, organism-based
Mus musculus [20] = assay: Cardioprotective activity against isoproterenol-induced apoptosis in Swiss mouse model of myocardial infarction assessed as change in Bcl2 expression at 10 umol, ip administered 30 mins post isoproterenol stimulation by Western blot analysis; assay type: functional, organism-based
Mus musculus [21] = assay: Cardioprotective activity in Swiss mouse model of myocardial infarction assessed as reversal of isoproterenol-induced increase in heart rate at 10 umol, ip administered 30 mins post isoproterenol stimulation and measured for 5 mins by electrocardiographic analysis; assay type: functional, organism-based
Mus musculus [22] = assay: Cardioprotective activity against isoproterenol-induced oxidative stress in Swiss mouse model of myocardial infarction assessed as reduction in protein carbonylation at 10 umol, ip administered 30 mins post isoproterenol stimulation by spectrophotometric method; assay type: functional, organism-based
Mus musculus [23] = assay: Cardioprotective activity in Swiss mouse model of myocardial infarction assessed as protection against isoproterenol-induced vacuolation in myocardium at 10 umol, ip administered 30 mins post isoproterenol stimulation by H and E staining based histopathological analysis; assay type: functional, organism-based
Mus musculus [24] = assay: Cardioprotective activity in Swiss mouse model of isoproterenol-induced myocardial infarction assessed as reduction in inflammatory cell infiltration in myocardium at 10 umol, ip administered 30 mins post isoproterenol stimulation by H and E staining based histopathological analysis; assay type: functional, organism-based
Mus musculus [25] = assay: Cardioprotective activity in Swiss mouse model of isoproterenol-induced myocardial infarction assessed as reduction in myocardial infarct size at 10 umol, ip administered 30 mins post isoproterenol stimulation by TTC staining based assay; assay type: functional, organism-based
Mus musculus [26] = assay: Cardioprotective activity in Swiss mouse model of myocardial infarction assessed as protection against isoproterenol-induced degeneration in myocardium at 10 umol, ip administered 30 mins post isoproterenol stimulation by H and E staining based histopathological analysis; assay type: functional, organism-based
Mus musculus [27] = assay: Cardioprotective activity against isoproterenol-induced oxidative stress in Swiss mouse model of myocardial infarction assessed as reduction in caspase-3 expression at 10 umol, ip administered 30 mins post isoproterenol stimulation by Western blot analysis; assay type: functional, organism-based
Mus musculus [28] = assay: Cardioprotective activity against isoproterenol-induced oxidative stress in Swiss mouse model of myocardial infarction assessed as reduction in sulfhydryl level in cardiac tissue homogenate at 10 umol, ip administered 30 mins post isoproterenol stimulation by spectrophotometric method; assay type: functional, organism-based
Mus musculus [29] = assay: Cardioprotective activity against isoproterenol-induced oxidative stress in Swiss mouse model of myocardial infarction assessed as reduction in lipid peroxidation at 10 umol, ip administered 30 mins post isoproterenol stimulation by TBARS method; assay type: functional, organism-based
Mus musculus [30] = assay: Cardioprotective activity in Swiss mouse model of myocardial infarction assessed as protection against isoproterenol-induced discontinuity in myocardium at 10 umol, ip administered 30 mins post isoproterenol stimulation by H and E staining based histopathological analysis; assay type: functional, organism-based
Mus musculus [31] = assay: Cardioprotective activity in Swiss mouse model of isoproterenol-induced myocardial Infarction assessed as abnormal ST-segment at 10 umol, ip administered 30 mins post isoproterenol stimulation and measured for 5 mins by electrocardiographic analysis (reference value: 70%); assay type: functional
Mus musculus [32] = assay: Cardioprotective activity against isoproterenol-induced oxidative stress in Swiss mouse model of myocardial infarction assessed as increase in catalase activity at 10 umol, ip administered 30 mins post isoproterenol stimulation by spectrophotometric method; assay type: functional, organism-based
Mus musculus [33] = assay: Cardioprotective activity against isoproterenol-induced oxidative stress in Swiss mouse model of myocardial infarction assessed as change in ferric ion reducing activity at 10 umol, ip administered 30 mins post isoproterenol stimulation by FRAP assay; assay type: functional, organism-based
Mus musculus [34] = assay: Cardioprotective activity in Swiss mouse model of isoproterenol-induced myocardial infarction assessed as reduction in creatine kinase myocardial band at 10 umol, ip administered 30 mins post isoproterenol stimulation; assay type: functional, organism-based
Mus musculus [35] = assay: Cardioprotective activity against isoproterenol-induced oxidative stress in Swiss mouse model of myocardial infarction assessed as reduction in ROS generation at 10 umol, ip administered 30 mins post isoproterenol stimulation by DHE staining based fluorescence assay; assay type: functional, organism-based

Measured: Activity

CC(=O)N[C@@H](CS)C(=O)O [ACETYLCYSTEINE]
active: Mus musculus [1] | Mus musculus [2] | Mus musculus [3] | Mus musculus [4] | Mus musculus [5] | Mus musculus [6] | Mus musculus [8] | Mus musculus [9] | Mus musculus [10]
20%: Mus musculus [7]

C=C(C)[C@H]1CC=C(C)CC1 [D-LIMONENE]
inactive: Mus musculus [20] | Mus musculus [32] | Mus musculus [33]
30%: Mus musculus [31]
not listed: Mus musculus [1] | Mus musculus [2] | Mus musculus [3] | Mus musculus [4] | Mus musculus [5] | Mus musculus [6] | Mus musculus [7] | Mus musculus [8] | Mus musculus [9] | Mus musculus [10]
active: all other assays above

Reference: ChEMBL document CHEMBL4342428, “d-Limonene Ameliorates Myocardial Infarction Injury by Reducing Reactive Oxygen Species and Cell Apoptosis in a Murine Model” (2019)
